Laboratory results: patent US20230117034A1, “PYRAZOLOTRIAZINES” (Bayer Aktiengesellschaft, priority 2019, published 2023)

What was measured:
CDK9/CycT1 = target: T1, CDK9/CycT1 (Homo sapiens, UniProt P50750); experiment: CDK9/CycT1 high ATP kinase assay (TR-FRET, 2 mM ATP); format: biochemical; details: 2 mM ATP (high ATP); median; read-out: CDK9/CyclinT1, 2 mM ATP (high ATP), IC50 (median)
T1 construct: Recombinant full-length His-tagged human CDK9 and CycT1; purchased Life Technologies PV4131; host or cells: insect cells
Outline: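 Full-length His-tagged human CDK9/CycT1 (insect cell, ~0.5 μg/mL) preincubated 15 min at 22 °C with compound in Tris pH 8.0, MgCl2, DTT buffer before reaction with biotinylated peptide substrate at high ATP (2 mM).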

[1] = test system: BRCA1 mRNA expression in MDA-MB-231 cells; experiment: qRT-PCR assay: BRCA1 mRNA expression in MDA-MB-231; format: cell-based, human; details: Homo sapiens, MDA-MB-231, Inhibition of BRCA1 mRNA expression in MDA-MB-231 cells; median; read-out: RTqPCR-MDA-MB-231, IC50, BRCA1 (median)
Outline: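 GAPDH-normalised RT-qPCR measures the transcript after 24 h continuous compound treatment of cells seeded at 200,000/well one day earlier.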

[2] = test system: MDA-MB-231, human breast cancer cells; experiment: Proliferation assay MDA-MB-231 (crystal violet, 4 days); format: cell-based; details: Homo sapiens, MDA-MB-231, 96 h, MDA-MB-231 cells, median, read-out: Prolif-MDA MB-231, IC50-[mol/l] (median)
Outline: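 Following a 24 h attachment in 10% fetal calf serum medium, cells receive test substance over 0.01-10 µmol/L for 4 days. Dye retained by fixed cells is eluted and read at 595 nm; cell number change is referenced to day-0 and untreated wells.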

T1 sequence (P50750 whole entry): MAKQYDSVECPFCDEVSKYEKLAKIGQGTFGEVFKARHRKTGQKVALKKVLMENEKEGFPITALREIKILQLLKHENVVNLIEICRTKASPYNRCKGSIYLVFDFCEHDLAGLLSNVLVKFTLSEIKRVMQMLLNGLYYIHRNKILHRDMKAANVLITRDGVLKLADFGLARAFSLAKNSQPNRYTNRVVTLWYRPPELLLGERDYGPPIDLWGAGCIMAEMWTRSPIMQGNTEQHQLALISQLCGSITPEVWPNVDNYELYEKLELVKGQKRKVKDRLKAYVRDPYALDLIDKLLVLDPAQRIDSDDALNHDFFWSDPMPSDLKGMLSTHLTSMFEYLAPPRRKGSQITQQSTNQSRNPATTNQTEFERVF
T1 sequence (O60563 whole entry partner): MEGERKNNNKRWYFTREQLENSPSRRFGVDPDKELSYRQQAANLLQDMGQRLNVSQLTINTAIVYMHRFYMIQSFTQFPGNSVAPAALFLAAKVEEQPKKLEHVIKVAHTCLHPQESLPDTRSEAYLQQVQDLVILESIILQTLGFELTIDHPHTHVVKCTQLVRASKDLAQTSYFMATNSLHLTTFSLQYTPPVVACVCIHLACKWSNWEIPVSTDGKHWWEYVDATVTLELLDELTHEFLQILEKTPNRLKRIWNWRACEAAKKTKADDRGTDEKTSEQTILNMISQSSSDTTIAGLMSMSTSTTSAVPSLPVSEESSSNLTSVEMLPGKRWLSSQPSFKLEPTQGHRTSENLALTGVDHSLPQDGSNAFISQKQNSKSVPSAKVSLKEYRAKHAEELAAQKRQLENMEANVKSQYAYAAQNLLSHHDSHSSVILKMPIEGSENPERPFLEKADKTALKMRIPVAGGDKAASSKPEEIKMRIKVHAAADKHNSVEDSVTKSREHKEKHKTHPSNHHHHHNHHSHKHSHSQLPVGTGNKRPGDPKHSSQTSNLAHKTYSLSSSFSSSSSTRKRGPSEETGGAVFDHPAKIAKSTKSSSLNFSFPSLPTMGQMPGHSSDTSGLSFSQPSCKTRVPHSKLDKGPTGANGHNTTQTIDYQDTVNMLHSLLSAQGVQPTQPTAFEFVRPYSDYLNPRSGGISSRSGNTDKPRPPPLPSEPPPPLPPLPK

IC50 (CDK9/CycT1) [nM] | IC50 [1] [nM] | IC50 [2] [nM] | Compound
718 | 4.76 | – | N#Cc1cccc(-c2nnc(CNc3nc(N4CCOCC4)nc4c(Br)cnn34)[nH]2)c1 [Example 55, 3-[5-({[8-bromo-2-(morpholin-4-yl)pyrazolo[1,5-a][1,3,5]triazin-4-yl]amino}methyl)-4H-1,2,4-triazol-3-yl]benzonitrile]
1290 | 77.1 | – | Brc1cnn2c(NCc3nnc(-c4cccnc4)[nH]3)nc(N3CCOCC3)nc12 [Example 53, 8-bromo-2-(morpholin-4-yl)-N-{[5-(pyridin-3-yl)-4H-1,2,4-triazol-3-yl]methyl}pyrazolo[1,5-a][1,3,5]triazin-4-amine]
> 20000 | 49 | – | CC1(C)CN(c2nc(NCc3nc4ccccc4[nH]3)n3ncc(Br)c3n2)CCO1 [Example 58, N-[(1H-benzimidazol-2-yl)methyl]-8-bromo-2-(2,2-dimethylmorpholin-4-yl)pyrazolo[1,5-a][1,3,5]triazin-4-amine]
> 20000 | 23.2 | – | Brc1cnn2c(NCc3nc4ccccc4[nH]3)nc(N3CCCC3)nc12 [Example 47, N-[(1H-benzimidazol-2-yl)methyl]-8-bromo-2-(pyrrolidin-1-yl)pyrazolo[1,5-a][1,3,5]triazin-4-amine]
2010 | 18.2 | – | COc1cccc(-c2nnc(CNc3nc(N4CCOCC4)nc4c(Br)cnn34)[nH]2)c1 [Example 50, 8-bromo-N-{[5-(3-methoxyphenyl)-4H-1,2,4-triazol-3-yl]methyl}-2-(morpholin-4-yl)pyrazolo[1,5-a][1,3,5]triazin-4-amine]
1840 | 26 | – | FC(F)(F)c1cccc(-c2nnc(CNc3nc(N4CCOCC4)nc4c(Br)cnn34)[nH]2)c1 [Example 52, 8-bromo-2-(morpholin-4-yl)-N-({5-[3-(trifluoromethyl)phenyl]-4H-1,2,4-triazol-3-yl}methyl)pyrazolo[1,5-a][1,3,5]triazin-4-amine]
3410 | 99 | – | Clc1ccc(-c2nnc(CNc3nc(N4CCOCC4)nc4c(Br)cnn34)[nH]2)cc1 [Example 45, 8-bromo-N-{[5-(4-chlorophenyl)-4H-1,2,4-triazol-3-yl]methyl}-2-(morpholin-4-yl)pyrazolo[1,5-a][1,3,5]triazin-4-amine]
2610 | 69.2 | – | Brc1cnn2c(NCc3nnc(-c4ccccc4)[nH]3)nc(N3CCCCC3)nc12 [Example 49, 8-bromo-N-[(5-phenyl-4H-1,2,4-triazol-3-yl)methyl]-2-(piperidin-1-yl)pyrazolo[1,5-a][1,3,5]triazin-4-amine]
2820 | 14.6 | – | Cc1cccc(-c2nnc(CNc3nc(N4CCOCC4)nc4c(Br)cnn34)[nH]2)c1 [Example 40, 8-bromo-N-{[5-(3-methylphenyl)-4H-1,2,4-triazol-3-yl]methyl}-2-(morpholin-4-yl)pyrazolo[1,5-a][1,3,5]triazin-4-amine]
885 | 2.95 | – | Fc1cccc(-c2nnc(CNc3nc(N4CCOCC4)nc4c(Br)cnn34)[nH]2)c1 [Example 44, 8-bromo-N-{[5-(3-fluorophenyl)-4H-1,2,4-triazol-3-yl]methyl}-2-(morpholin-4-yl)pyrazolo[1,5-a][1,3,5]triazin-4-amine]
> 20000 | 69.9 | – | N#Cc1cnn2c(NCc3nc4ccccc4[nH]3)nc(N3CCOCC3)nc12 [Example 43, 4-{[(1H-benzimidazol-2-yl)methyl]amino}-2-(morpholin-4-yl)pyrazolo[1,5-a][1,3,5]triazine-8-carbonitrile]
> 20000 | 94.2 | – | Brc1cnn2c(NCc3nc4ccccc4[nH]3)nc(N3CC4(COC4)C3)nc12 [Example 48, N-[(1H-benzimidazol-2-yl)methyl]-8-bromo-2-(2-oxa-6-azaspiro[3.3]heptan-6-yl)pyrazolo[1,5-a][1,3,5]triazin-4-amine]
1290 | 5.8 | – | Clc1cccc(-c2nnc(CNc3nc(N4CCOCC4)nc4c(Br)cnn34)[nH]2)c1 [Example 51, 8-bromo-N-{[5-(3-chlorophenyl)-4H-1,2,4-triazol-3-yl]methyl}-2-(morpholin-4-yl)pyrazolo[1,5-a][1,3,5]triazin-4-amine]
> 20000 | 12.5 | – | Brc1cnn2c(NCc3nc4ccccc4[nH]3)nc(N3CCCCC3)nc12 [Example 46, N-[(1H-benzimidazol-2-yl)methyl]-8-bromo-2-(piperidin-1-yl)pyrazolo[1,5-a][1,3,5]triazin-4-amine]
6240 | 66.2 | – | Brc1cnn2c(NCc3nnc(-c4ccccn4)[nH]3)nc(N3CCOCC3)nc12 [Example 54, 8-bromo-2-(morpholin-4-yl)-N-{[5-(pyridin-2-yl)-4H-1,2,4-triazol-3-yl]methyl}pyrazolo[1,5-a][1,3,5]triazin-4-amine]
> 20000 | 3670 | – | Fc1ccc(-c2nnc(CNc3nc(N4CCOCC4)nc4c(Br)cnn34)[nH]2)c(F)c1 [Example 41, 8-bromo-N-{[5-(2,4-difluorophenyl)-4H-1,2,4-triazol-3-yl]methyl}-2-(morpholin-4-yl)pyrazolo[1,5-a][1,3,5]triazin-4-amine]

Second part, the compound before the results:

Compound | IC50 (CDK9/CycT1) [nM] | IC50 [1] [nM] | IC50 [2] [nM]
CC(C)c1cnn2c(NCc3ncc(-c4ccccc4)[nH]3)nc(N3CCCCC3)nc12 [Example 36, N-[(5-phenyl-1H-imidazol-2-yl)methyl]-2-(piperidin-1-yl)-8-(propan-2-yl)pyrazolo[1,5-a][1,3,5]triazin-4-amine] | > 20000 | 128 | –
CN(C)CCOc1nc(NCc2nc3ccccc3[nH]2)n2ncc(Br)c2n1 [Example 399, N-[(1H-benzimidazol-2-yl)methyl]-8-bromo-2-[2-(dimethylamino)ethoxy]pyrazolo[1,5-a][1,3,5]triazin-4-amine] | > 20000 | – | 384
Brc1cnn2c(NCc3nc4ccccc4[nH]3)nc(OC3CCNCC3)nc12 [Example 411, N-[(1H-benzimidazol-2-yl)methyl]-8-bromo-2-[(piperidin-4-yl)oxy]pyrazolo[1,5-a][1,3,5]triazin-4-amine] | > 20000 | – | 138
OC[C@@H]1CCCCN1c1nc(NCc2nc3ccccc3[nH]2)n2ncc(Br)c2n1 [Example 59, [(2S)-1-(4-{[(1H-benzimidazol-2-yl)methyl]amino}-8-bromopyrazolo[1,5-a][1,3,5]triazin-2-yl)piperidin-2-yl]methanol] | 10700 | 30.5 | –
NCCOCCOCCNc1nc(NCc2nc3ccccc3[nH]2)n2ncc(Br)c2n1 [Example 412, N2-{2-[2-(2-aminoethoxy)ethoxy]ethyl}-N4-[(1H-benzimidazol-2-yl)methyl]-8-bromopyrazolo[1,5-a][1,3,5]triazine-2,4-diamine] | > 20000 | – | 1910
CC(C)c1cnn2c(NCc3nnc(-c4ccccc4)[nH]3)nc(N3CCN(C)CC3)nc12 [Example 37, 2-(4-methylpiperazin-1-yl)-N-[(5-phenyl-4H-1,2,4-triazol-3-yl)methyl]-8-(propan-2-yl)pyrazolo[1,5-a][1,3,5]triazin-4-amine] | > 20000 | – | –
OC[C@H]1CCCCN1c1nc(NCc2nc3ccccc3[nH]2)n2ncc(Br)c2n1 [Example 60, [(2R)-1-(4-{[(1H-benzimidazol-2-yl)methyl]amino}-8-bromopyrazolo[1,5-a][1,3,5]triazin-2-yl)piperidin-2-yl]methanol] | 7340 | 45.3 | –
C[C@H]1COCCN1c1nc(NCc2nc3ccccc3[nH]2)n2ncc(Br)c2n1 [Example 57, N-[(1H-benzimidazol-2-yl)methyl]-8-bromo-2-[(3S)-3-methylmorpholin-4-yl]pyrazolo[1,5-a][1,3,5]triazin-4-amine] | 6670 | 1.52 | –
CC(C)c1cnn2c(NCc3nnc(-c4ccccc4)[nH]3)nc(N(C)CC(C)(C)O)nc12 [Example 39, 2-methyl-1-{methyl[4-{[(5-phenyl-4H-1,2,4-triazol-3-yl)methyl]amino}-8-(propan-2-yl)pyrazolo[1,5-a][1,3,5]triazin-2-yl]amino}propan-2-ol] | 4910 | 92.3 | –
CC(C)c1cnn2c(NCc3ncc(-c4ccccc4)[nH]3)nc(N(C)CC(C)(C)O)nc12 [Example 35, 2-methyl-1-{methyl[4-{[(5-phenyl-1H-imidazol-2-yl)methyl]amino}-8-(propan-2-yl)pyrazolo[1,5-a][1,3,5]triazin-2-yl]amino}propan-2-ol] | 9150 | 39 | –
C[C@@H]1COCCN1c1nc(NCc2nc3ccccc3[nH]2)n2ncc(Br)c2n1 [Example 56, N-[(1H-benzimidazol-2-yl)methyl]-8-bromo-2-[(3R)-3-methylmorpholin-4-yl]pyrazolo[1,5-a][1,3,5]triazin-4-amine] | > 20000 | 21.8 | –
CCNc1nc(NCc2nnc(-c3ccccc3)[nH]2)n2ncc(C(C)C)c2n1 [Example 38, N^2-ethyl-N^4-[(5-phenyl-4H-1,2,4-triazol-3-yl)methyl]-8-(propan-2-yl)pyrazolo[1,5-a][1,3,5]triazine-2,4-diamine] | > 20000 | – | –
